Assay results as given in PubChem BioAssay (NCI).
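Cultured in 96-well plates, cells were exposed to test compound for 48 hours across five concentrations. At the TGI there is no net growth.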

Experiments:
Assay in all cases: growth of human tumour cells (NCI), 48 h
786-0 renal = test system: 786-0 renal
A498 renal = test system: A498 renal
A549 NSCLC = test system: A549 NSCLC
ACHN renal = test system: ACHN renal
CAKI-1 renal = test system: CAKI-1 renal
CCRF-CEM leukemia = test system: CCRF-CEM leukemia
COLO 205 colon = test system: COLO 205 colon
DLD-1 colon = test system: DLD-1 colon
DMS 114 small cell lung = test system: DMS 114 small cell lung
DMS 273 small cell lung = test system: DMS 273 small cell lung
EKVX NSCLC = test system: EKVX NSCLC
HCC-2998 colon = test system: HCC-2998 colon
HCT-116 colon = test system: HCT-116 colon
HCT-15 colon = test system: HCT-15 colon
HL-60(TB) leukemia = test system: HL-60(TB) leukemia
HOP-18 NSCLC = test system: HOP-18 NSCLC
HOP-62 NSCLC = test system: HOP-62 NSCLC
HOP-92 NSCLC = test system: HOP-92 NSCLC
HT29 colon = test system: HT29 colon
IGROV1 ovarian = test system: IGROV1 ovarian
K-562 leukemia = test system: K-562 leukemia
KM12 colon = test system: KM12 colon
KM20L2 colon = test system: KM20L2 colon
LOX IMVI melanoma = test system: LOX IMVI melanoma
LXFL 529 NSCLC = test system: LXFL 529 NSCLC
M14 melanoma = test system: M14 melanoma
MALME-3M melanoma = test system: MALME-3M melanoma
MOLT-4 leukemia = test system: MOLT-4 leukemia
NCI-H226 lung = test system: NCI-H226 lung
NCI-H23 lung = test system: NCI-H23 lung
NCI-H460 lung = test system: NCI-H460 lung
NCI-H522 lung = test system: NCI-H522 lung
OVCAR-3 ovarian = test system: OVCAR-3 ovarian
OVCAR-4 ovarian = test system: OVCAR-4 ovarian
OVCAR-5 ovarian = test system: OVCAR-5 ovarian
OVCAR-8 ovarian = test system: OVCAR-8 ovarian
RPMI-8226 leukemia = test system: RPMI-8226 leukemia
RXF 393 renal = test system: RXF 393 renal
RXF-631 renal = test system: RXF-631 renal
SF-268 CNS = test system: SF-268 CNS
SF-295 CNS = test system: SF-295 CNS
SF-539 CNS = test system: SF-539 CNS
SK-MEL-2 melanoma = test system: SK-MEL-2 melanoma
SK-MEL-28 melanoma = test system: SK-MEL-28 melanoma
SK-MEL-5 melanoma = test system: SK-MEL-5 melanoma
SK-OV-3 ovarian = test system: SK-OV-3 ovarian
SN12C renal = test system: SN12C renal
SNB-19 CNS = test system: SNB-19 CNS
SNB-75 CNS = test system: SNB-75 CNS
SNB-78 CNS = test system: SNB-78 CNS
SR leukemia = test system: SR leukemia
SW-620 colon = test system: SW-620 colon
TK-10 renal = test system: TK-10 renal
U251 CNS = test system: U251 CNS
UACC-257 melanoma = test system: UACC-257 melanoma
UACC-62 melanoma = test system: UACC-62 melanoma
UO-31 renal = test system: UO-31 renal
M19-MEL melanoma = test system: M19-MEL melanoma

Measured: TGI

CC(N)Cc1ccc(F)cc1 (configuration not stated)
not listed: M19-MEL melanoma
> 100 µM: all other assays above

Cc1cc(=O)oc2cc(OCc3nc4ccccc4c(=O)n3-c3ccccc3)ccc12
97.7 µM: SNB-19 CNS
46.7 µM: SNB-75 CNS
96.4 µM: HOP-92 NSCLC
not listed: SNB-78 CNS | SR leukemia | UACC-257 melanoma | UO-31 renal
> 100 µM: all other assays above

COc1c(C)c(O)c2c(=O)cc(-c3ccccc3)oc2c1C
not listed: COLO 205 colon | DMS 273 small cell lung | HL-60(TB) leukemia | RPMI-8226 leukemia | RXF 393 renal | SNB-19 CNS | SR leukemia
> 100 µM: all other assays above
